Measured values from ChEMBL document CHEMBL5505975, “Design, synthesis and biological evaluation of CDC20 inhibitors for treatment of triple-negative breast cancer” (Eur J Med Chem, 2024).
Calls of active or inactive are those of the source. The calls are words filed in the database; no cut-off is given here.

Experiments:
[1] = test system: MDA-MB-468; assay: Antiproliferative activity against human MDA-MB-468 cells assessed as reduction in cell viability incubated for 96 hrs by MTT assay; settings: MDA-MB-468, 96 h
[2] = Cytotoxicity against human L02 cells assessed as reduction in cell viability incubated for 96 hrs by MTT assay; format: toxicity, cell-based
[3] = test system: MDA-MB-231; assay: Cell cycle arrest in human MDA-MB-231 cells assessed as G2 phase cells at 20 uM incubated for 72 hrs by PI staining based flow cytometric analysis (reference value: 14.6%); format: functional
[4] = test system: MDA-MB-231; assay: Cell cycle arrest in human MDA-MB-231 cells assessed as S phase cells at 5 uM incubated for 48 hrs by PI staining based flow cytometric analysis (reference value: 16.0%); format: functional
[5] = test system: MDA-MB-231; assay: Antimigratory activity in human MDA-MB-231 cells assessed as reduction in migration ability incubated for 24 hrs by wound healing assay; format: functional, cell-based; settings: dose 2.5-10 µM
[6] = test system: MDA-MB-231; assay: Induction of autophagy in human MDA-MB-231 cells assessed as increase in LC3BII expression level incubated for 48 hrs by Western blot analysis; format: functional, cell-based
[7] = test system: MDA-MB-231; assay: Induction of apoptosis in human MDA-MB-231 cells assessed as necrotic cells at 2.5 uM incubated for 48 hrs by Annexin V-FITC/PI staining based flow cytometric analysis (reference value: 1.63%); format: functional
[8] = test system: MDA-MB-231; assay: Induction of apoptosis in human MDA-MB-231 cells assessed as early apoptotic cells at 5 uM incubated for 48 hrs by Annexin V-FITC/PI staining based flow cytometric analysis (reference value: 2.25 %); format: functional
[9] = test system: MDA-MB-231; assay: Induction of apoptosis in human MDA-MB-231 cells assessed as late apoptotic cells at 10 uM incubated for 48 hrs by Annexin V-FITC/PI staining based flow cytometric analysis (reference value: 1.06%); format: functional
[10] = test system: 4T1; assay: Antitumor activity against mouse 4T1 cells implanted in female BALB/C mouse assessed as inhibition of tumor weight at 50 mg/kg, iv administered every two days for 21 days relative to control; format: functional, organism-based; settings: time 21.0 day
[11] = Toxicity in female BALB/C mouse implanted with mouse 4T1 cells assessed as liver damage at 20 to 50 mg/kg, iv administered every two days for 21 days by H and E staining based analysis; format: organism-based; settings: in vivo, 504 h, dose 20-50 mg/kg, time 21 day
[12] = Toxicity in female BALB/C mouse implanted with mouse 4T1 cells assessed as heart damage at 20 to 50 mg/kg, po administered every two days for 21 days by H and E staining based analysis; format: organism-based; settings: in vivo, 504 h, dose 20-50 mg/kg, time 21 day
[13] = Toxicity in female BALB/C mouse implanted with mouse 4T1 cells assessed as liver damage at 20 to 50 mg/kg, po administered every two days for 21 days by H and E staining based analysis; format: organism-based; settings: in vivo, 504 h, dose 20-50 mg/kg, time 21 day
[14] = Toxicity in female BALB/C mouse implanted with mouse 4T1 cells assessed as change in serum CK level at 20 to 50 mg/kg, po administered every two days for 21 days; format: organism-based; settings: in vivo, 504 h, dose 20-50 mg/kg, time 21 day
[15] = Toxicity in female BALB/C mouse implanted with mouse 4T1 cells assessed as change in serum ALT level at 20 to 50 mg/kg, iv administered every two days for 21 days; format: organism-based; settings: in vivo, 504 h, dose 20-50 mg/kg, time 21 day
[16] = Toxicity in female BALB/C mouse implanted with mouse 4T1 cells assessed as change in serum CREA level at 20 to 50 mg/kg, iv administered every two days for 21 days; format: organism-based; settings: in vivo, 504 h, dose 20-50 mg/kg, time 21 day
[17] = Toxicity in female BALB/C mouse implanted with mouse 4T1 cells assessed as change in serum CK level at 20 to 50 mg/kg, iv administered every two days for 21 days; format: organism-based; settings: in vivo, 504 h, dose 20-50 mg/kg, time 21 day
[18] = Toxicity in female BALB/C mouse implanted with mouse 4T1 cells assessed as effect on lymphocytes at 20 to 50 mg/kg, po administered every two days for 21 days by routine blood analysis; format: organism-based; settings: in vivo, 504 h, dose 20-50 mg/kg, time 21 day
[19] = Toxicity in female BALB/C mouse implanted with mouse 4T1 cells assessed as effect on neutrophils at 20 to 50 mg/kg, po administered every two days for 21 days by routine blood analysis; format: organism-based; settings: in vivo, 504 h, dose 20-50 mg/kg, time 21 day
[20] = Toxicity in female BALB/C mouse implanted with mouse 4T1 cells assessed as change in WBC level at 20 to 50 mg/kg, iv administered every two days for 21 days by routine blood analysis; format: organism-based; settings: in vivo, 504 h, dose 20-50 mg/kg, time 21 day
[21] = Toxicity in female BALB/C mouse implanted with mouse 4T1 cells assessed as effect on monocytes at 20 to 50 mg/kg, iv administered every two days for 21 days by routine blood analysis; format: organism-based; settings: in vivo, 504 h, dose 20-50 mg/kg, time 21 day

SMILES: CCC(=O)NC(n1cnc2c(Nc3cc(OC)c(OC)c(OC)c3)nc(N)nc21)C(Cl)(Cl)Cl (stereo unspecified)
- IC50 [1]: 7.24 µM
- IC50 at 96 h [2]: 14.7 µM
- Activity [3]: 51.1%
- Activity [4]: 28.6%
- Activity [5]: Dose-Dependent Effect
- Activity [6]: Dose-Dependent Effect
- Activity [7]: 1.57%
- Activity [8]: 4.37%
- Activity [9]: 2.04%
- Activity [10]: inactive
- Activity [11]: Non-Toxic
- Activity [12]: Non-Toxic
- Activity [13]: Non-Toxic
- Activity [14]: Non-Toxic
- Activity [15]: Non-Toxic
- Activity [16]: Non-Toxic
- Activity [17]: Non-Toxic
- Activity [18]: Non-Toxic
- Activity [19]: Non-Toxic
- Activity [20]: Non-Toxic
- Activity [21]: Non-Toxic
